Experimental data published in patent publication US10548883B2, “Benzotriazole-derived α and β-unsaturated amide compound used as TGF-β RI inhibitor” (GENFLEET THERAPEUTICS (SHANGHAI) INC., priority 2016, dated 2020).
Several values for one entry are separate records, joined by “and”; a condition that tells them apart may be missing. Equal entries are not always repeated. Values belong to the compound of their own block, whether it stands above or below them.

Experiments:
[1] = system: NIH/3T3 mouse embryonic cells; test: Test of proliferation inhibition on NIH/3T3 mouse embryonic cells (CellTiter-Glo, with TGF-β1); assay type: cell-based; details: NIH3T3, 0.2 ng/mL TGF-β1, 72 h
Experimental: Promega's Luminescent Cell Viability Assay (CellTiter-Glo® method, i.e. ATP fluorescence activity detection and analysis), the compound is added to the cell culture plate for incubation. A substrate buffer for detecting intracellular ATP content was added on the day of detection. Slightly shake and centrifuge at 1000 rpm for 1 min. Tested after standing for 10 min. The assay plate was analyzed using Envision multifunctional enzyme marker of PerkinElmer, Inc., and the analysis mode was fluorescence detection, and the data was expressed by the reading of chemiluminescence signal at 400-700 nm.
i) When the cell growth coverage is about 70%, the cell layer was washed with 10 mL of Duchenne phosphate buffer (D-PBS) which is calcium- and magnesium-free, then 2 mL of 0.25% trypsin-EDTA digest was added. The cell culture flask was placed in a CO2 carbon dioxide incubator at 37° C. and incubated for 3-5 min, then 8 mL of complete culture medium containing 2% FBS DMEM cells was added, and the cells were puffed evenly into single cell and counted by Vi-cell cytometer, and NIH/3T3 cell suspension was diluted to 0.375×10^5/mL cells.
ii) 50 μL of 2% DMEM-containing medium was added around the 384-well cell culture plate, then 40 μL of cell suspension was added to the remaining wells to 1500 cells per well. The distribution of the cells was observed under a microscope, and the cell plates were placed in a cell culture incubator with 5% CO2 at 37° C.
iii) Dilution of the compound refers to the preparation of the compound.
iv) A mixture of 2% fetal bovine serum containing 1 ng/mL TGF-β1 in DMEM medium was added manually to the compound intermediate plate, 20 μL per well.
v) The compound intermediate plate was shook slightly for 10 sec at 1000 rpm/min and centrifuge for 10 sec.
vi) 10 uL of the mixed liquid from steps 4 and 5 of each well was transferred to the inoculated cell plate to a final volume of 50 μL by using a Bravo liquid workstation, and the final concentration of TGF-β1 was diluted to 0.2 ng/mL, and centrifuged for 10 sec at 1000 rpm/min. The plates were placed in an incubator with 5% carbon dioxide at 37° C., 5% carbon dioxide for 72 h. The final concentration of the compound is: (unit: μM)
vii) The cell plate containing the compound was cultured in a cell incubator with 5% CO2 at 37° C. for 3 days.
viii) After that, 25 μL of ATP fluorescence activity detection solution was added to each well of the cell plate, then shook gently for about 1 min and centrifuged at 500 rpm/min for about 30 sec, and the reading was performed in an Envision instrument after standing at room temperature for 10 min in the dark.

[2] = biological target: T1, TGF-βRI (Homo sapiens, UniProt P36897); test: Test of inhibitory activity of TGFβ-RI in vitro; assay type: biochemical; details: 10 μM ATP
T1 sequence (P36897 34-503): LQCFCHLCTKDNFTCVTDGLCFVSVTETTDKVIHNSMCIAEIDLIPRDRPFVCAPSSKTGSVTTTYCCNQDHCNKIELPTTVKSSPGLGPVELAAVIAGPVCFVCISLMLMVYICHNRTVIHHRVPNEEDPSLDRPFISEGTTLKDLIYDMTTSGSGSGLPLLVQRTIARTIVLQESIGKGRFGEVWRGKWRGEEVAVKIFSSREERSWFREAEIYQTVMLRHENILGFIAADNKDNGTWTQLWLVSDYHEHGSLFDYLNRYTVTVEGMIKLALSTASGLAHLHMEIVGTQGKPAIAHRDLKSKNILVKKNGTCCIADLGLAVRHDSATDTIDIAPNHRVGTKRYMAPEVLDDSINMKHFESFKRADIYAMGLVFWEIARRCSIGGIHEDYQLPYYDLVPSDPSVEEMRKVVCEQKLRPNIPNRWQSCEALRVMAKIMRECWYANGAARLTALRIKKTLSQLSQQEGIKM
Experimental: i) Test compound: the IC50 was determined by diluting into 10 gradient points with each gradient by three-fold dilution and with a starting concentration of 5 μM.
ii) The IC50 of reference compound LDN193189 was determined by diluting into 10 gradient points with each gradient by three-fold dilution and with a starting concentration of 20 μM.
iii) The reaction system contains 10 μM ATP.
iv) Calculate the IC50 value by curve fitting when the percentage of enzyme activity (compared to the solvent group) is below 65% at the highest concentration of the sample.

[3] = system: mouse breast cancer 4T1 cells; test: Tumor cell metastasis inhibition in BALB/c mouse orthotopic transplantation model of mouse breast cancer 4T1 cells; assay type: in vivo; details: 75 mg/kg PO once a day × 32
Experimental: Fluorescently labeled mouse breast cancer 4T1-Luc cells were expanded in vitro. Before the cells were collected, the mice were anesthetized with intraperitoneal injection of sodium pentobarbital. After anesthetized mice were fixed, the abdominal skin was disinfected with 70% alcohol. 100 uL of phosphate buffer (containing 0.5×10^6 4T1-luc2 cells) was inoculated into the left side of the fourth pair of abdominal mammary fat pads in mice, and the incision was sutured to disinfect the skin. The animals are kept warm with a warm blanket, observed until they wake up and put back in their cages. 0.1 mg/kg buprenorphine for pain relief was subcutaneously injected 30 min before surgery and 6 hours after surgery.
On the third day after modeling, the animals were subjected to bioluminescence detection by infrared data imaging, randomly grouped according to the fluorescence values, and administered according to the following experimental protocol, see Table 5.
To observe the inhibitory effect of embodiment 1 on tumor growth and metastasis, the experimental endpoint was designed to be 30-35 days after administration, with reference to historical data of the model. At the end of the experiment, the in situ tumor and various organ tissues were dissected, the tumor was weighed, and the fluorescence intensity of each organ was detected by IVIS fluorescence. Growth inhibition of orthotopic tumors can be compared by the weight of the in situ tumor in the experimental endpoint, and the inhibition curve is generated from the tumor volume measurement data twice a week during the experiment. The inhibition of tumor metastasis was determined by the presence or absence of fluorescence detection of each organ and the analysis of relative fluorescence intensity.
At the end of the experiment, the tumor weight will be detected and the relative tumor growth rate T/C (%) will be calculated; the tumor volume is calculated as: V=0.5a×b^2, and a and b represent the long and short diameters of the tumor, respectively. At the same time, the lung, liver, spleen, kidney, intestine and left upper limb were stripped, and fluorescence was detected to determine whether there was metastasis and metastasis intensity and ratio.
The antitumor effect of the compound was evaluated by the tumor growth inhibition rate TGI (%) or the relative tumor growth rate T/C (%).
Calculation of TGI (%): TGI (%)=[(1−mean tumor volume at the end of administration of a treatment group−mean tumor volume at the start of administration of the treatment group))/(mean tumor volume at the end of treatment of the solvent control group−mean tumor volume at the start of administration of the solvent control group)]×100%.
Relative tumor growth rate T/C (%) calculation: T/C(%)=Tt(treatment group)/Ct(control group)×100%, Tt is the average tumor volume at a certain measurement, and Ct takes the same day data.
The experimental results were statistically analyzed using one-way ANOVA. If there is a significant difference in F values, multiple comparisons should be made after ANOVA analysis. All data in this experiment were analyzed using SPSS 17.0. A significant difference was considered at p<0.05.
At the end of the experiment, each organ tissue was peeled off, and fluorescence imaging and fluorescence intensity value recording were measured by IVIS for 40 sec exposure within 8 min. The fluorescence imaging results of the tested tissues of the 10 animals excised by the maximum and minimum values are shown in Table 6.
According to the experimental end point, the fluorescence intensity of each group of organs was normalized by the control group, and the relative fluorescence intensity ratio of each group of organs was obtained. The ratio reflects the level of metastatic intensity on the corresponding organs.

[4] = system: CT-26 cells; test: Tumor cell proliferation inhibition in BALB/c mouse model of subcutaneously transplanted CT-26 cells, alone or combined with BioXcell-mPD-L1; assay type: in vivo; details: for Tumor volume: average ± SEM, small molecules 75 mg/kg PO twice a day, BioXcell-mPD-L1 10 mg/kg IP twice a week
Experimental: The following table lists the animal grouping and dosing regimen of embodiment 1, the positive reference compound LY2157299 and the BioXcell PD-L1 monoclonal antibody (BioXcell-mPD-L1), which are used alone or in combination in vivo.
Mouse colon cancer CT-26 cells were cultured in vitro in a single layer, and culture conditions is RPMI1640 medium (Medium No. 1640, Roswell Parker Memorial Institute) supplemented with 10% fetal bovine serum at 37° C., 5% CO2. Passage was routinely digested with trypsin-EDTA twice a week. When the cell saturation is 80%-90%, the cells are collected, counted, and inoculated.
0.1 mL (1×10^5) CT-26 cells were subcutaneously inoculated into the right back of each BALB/c mouse. The mice were administered in groups according to the body weight of the mice on the second day after cell inoculation.
The experimental indicator is to investigate whether tumor growth is inhibited, delayed or cured. Tumor diameters were measured with Vernier calipers twice a week. The tumor volume is calculated as: V=0.5a×b^2, and a and b represent the long and short diameters of the tumor, respectively.
The antitumor effect of the compound was evaluated by TGI (%) or tumor proliferation rate T/C (%). TGI (%) reflects the tumor growth inhibition rate. Calculation of TGI (%): TGI (%)=[(1-(mean tumor volume at the end of administration of a treatment group—mean tumor volume at the start of administration of the treatment group))/(mean tumor volume at the end of treatment of the solvent control group)—mean tumor volume at the start of treatment of the solvent control group)]×100%.
Tumor proliferation rate T/C (%): The formula is as follows: T/C %=T/C×100% (T: treatment group; C: negative control group).
Tumor weights were measured after the end of the experiment and the percentage of T/Cweight was calculated. Tweight and Cweight represent the tumor weights of the drug-administered group and the vehicle control group, respectively.
Statistical analysis, including mean and standard error (SEM) of tumor volume at each time point for each group (see Table 4 for specific data). […] T-test was used for comparison between the two groups, and one-way analysis of variance was used for comparison between three or more groups. If there was a significant difference in F values, the Gass-Howell method was used to test. If there is no significant difference in F values, the Dunnet (2-sided) method is used for analysis. All data analysis was performed with SPSS 17.0. A significant difference was considered at p<0.05.

[5] = system: liver cancer; details: phase 2, patients with liver cancer; cited from earlier work
[6] = animals with metastasis/animals in group
[7] = average organ fluorescence relative to control group

SMILES: Cc1cccc(-c2nn3c(c2-c2ccc4ncnn4c2/C=C/C(=O)NC2CC2)CCC3)n1 [Embodiment 4]
- IC50 [1]: 2 to 5 µM
- IC50 [2]: 0.05 to 0.5 µM

SMILES: Cc1cccc(-c2nn3c(c2-c2ccc4ncnn4c2/C=C/C(=O)NCCO)CCC3)n1 [Embodiment 5]
- IC50 [1]: > 5 µM
- IC50 [2]: 0.05 to 0.5 µM

SMILES: CNC(=O)/C=C/c1c(-c2c(-c3cccc(C)n3)nn3c2CCC3)ccc2ncnn12 [Embodiment 2]
- IC50 [1]: 2 to 5 µM
- IC50 [2]: 0.05 to 0.5 µM

SMILES: Cc1cccc(-c2nn3c(c2-c2ccnc4ccc(C(N)=O)cc24)CCC3)n1 [LY2157299, Galunisertib, reference compound]
- Metastasis rate, intestine [3, 6]: 60%
- Metastasis rate, kidney [3, 6]: 30%
- Metastasis rate, liver [3, 6]: 80%
- Metastasis rate, lung [3, 6]: 100%
- Metastasis rate, spleen [3, 6]: 10%
- Metastasis rate, upper limb [3, 6]: 70%
- Metastasis level, intestine [3, 7]: 41%
- Metastasis level, kidney [3, 7]: 121%
- Metastasis level, liver [3, 7]: 31%
- Metastasis level, lung [3, 7]: 20%
- Metastasis level, spleen [3, 7]: 4%
- Metastasis level, upper limb [3, 7]: 54%
- Tumor volume ([4]; day 10 of administration): 98 ± 14 mm^3
- Tumor volume ([4]; day 13 of administration): 446 ± 104 mm^3
- Tumor volume ([4]; day 15 of administration): 840 ± 177 mm^3
- Tumor volume ([4]; day 17 of administration): 1256 ± 257 mm^3
- Tumor volume ([4]; day 20 of administration): 2186 mm^3 and 2186 ± 435 mm^3
- Tumor proliferation rate T/C ([4]; twenty days after start of administration, 75 mg/kg PO and/or 10 mg/kg IP): 85%
- Antitumor effect compared with the solvent control group ([4]; twenty days after start of administration, 75 mg/kg and/or 10 mg/kg): no significant antitumor effect
- Patients with a decrease in serum alpha-fetoprotein (AFP) level of more than 20% [5]: about 23%

SMILES: CCNC(=O)/C=C/c1c(-c2c(-c3cccc(C)n3)nn3c2CCC3)ccc2ncnn12 [Embodiment 3]
- IC50 [1]: 2 to 5 µM
- IC50 [2]: 0.05 to 0.5 µM

SMILES: Cc1cccc(-c2nn(Cc3cccc(C#N)c3)cc2-c2ccc3ncnn3c2/C=C/C(N)=O)n1 [Embodiment 6]
- IC50 [1]: 0.5 to 2 µM
- IC50 [2]: 0.05 to 0.5 µM

More lines, main results first:

- IC50 [2]: 0.05 to 0.5 µM
SMILES: Cc1cccc(-c2nn(Cc3cccc(C(F)F)c3)cc2-c2ccc3ncnn3c2/C=C/C(N)=O)n1 [Embodiment 9]
- IC50 [1]: 0.5 to 2 µM

- IC50 [2]: 0.05 to 0.5 µM
SMILES: CCc1cccc(-c2nn3c(c2-c2ccc4ncnn4c2/C=C/C(N)=O)CCC3)n1 [Embodiment 10]
- IC50 [1]: 2 to 5 µM

- IC50 [2]: > 0.5 µM
SMILES: Cc1nc(-c2nn3c(c2-c2ccc4ncnn4c2/C=C/C(N)=O)CCC3)ccc1Cl [Embodiment 12]

- IC50 [2]: 0.05 to 0.5 µM
SMILES: Cc1cccc(-c2nn(C3CCCC3)cc2-c2ccc3ncnn3c2/C=C/C(N)=O)n1 [Embodiment 7]

- IC50 [2]: 0.05 to 0.5 µM
SMILES: Cc1cccc(-c2nn(C(C)C)cc2-c2ccc3ncnn3c2/C=C/C(N)=O)n1 [Embodiment 8]
- IC50 [1]: 2 to 5 µM

- IC50 [2]: > 0.5 µM
SMILES: Cc1cc(C)nc(-c2nn3c(c2-c2ccc4ncnn4c2/C=C/C(N)=O)CCC3)c1 [Embodiment 11]
